From ChEMBL document CHEMBL4002623, “Synthesis and in vitro activity of dicationic indolyl diphenyl ethers as novel potent antibiotic agents against drug-resistant bacteria” (Bioorg Med Chem Lett, 2017)
≈ marks a conversion by molar mass, not a printed value.

Key:
Staphylococcus aureus [1] = assay: Antibacterial activity against methicillin-resistant Staphylococcus aureus ATCC 33591 by agar dilution method; format: functional
Providencia rettgeri = assay: Antibacterial activity against Providencia rettgeri ATCC 31052 by agar dilution method; format: functional
Enterococcus faecalis [2] = assay: Antibacterial activity against vancomycin-resistant Enterococcus faecalis 09-9 by agar dilution method; format: functional
Klebsiella pneumoniae [3] = assay: Antibacterial activity against extended-spectrum beta-lactamase-negative Klebsiella pneumoniae 09-8 by agar dilution method; format: functional
Pseudomonas aeruginosa [4] = assay: Antibacterial activity against Pseudomonas aeruginosa ATCC 27853 by agar dilution method; format: functional
Proteus vulgaris = assay: Antibacterial activity against Proteus vulgaris ATCC 29905 by agar dilution method; format: functional
Salmonella typhi = assay: Antibacterial activity against Salmonella typhi H901 by agar dilution method; format: functional, Salmonella enterica subsp. enterica serovar Typhi; conditions: Salmonella enterica
Staphylococcus aureus [5] = assay: Antibacterial activity against methicillin-resistant Staphylococcus aureus 09-13 by agar dilution method; format: functional
Enterococcus faecalis [6] = assay: Antibacterial activity against vancomycin-resistant Enterococcus faecalis ATCC 51299 by agar dilution method; format: functional
Enterococcus faecium [7] = assay: Antibacterial activity against vancomycin-resistant Enterococcus faecium 05-8 by agar dilution method; format: functional
Staphylococcus aureus [8] = assay: Antibacterial activity against methicillin-sensitive Staphylococcus aureus 09-6 by agar dilution method; format: functional
Escherichia coli [9] = assay: Antibacterial activity against extended-spectrum beta-lactamase-negative Escherichia coli 09-20 by agar dilution method; format: functional
Klebsiella pneumoniae [10] = assay: Antibacterial activity against Klebsiella pneumoniae ATCC BAA-2146 expressing NDM-1 by agar dilution method; format: functional
Staphylococcus aureus [11] = assay: Antibacterial activity against methicillin-sensitive Staphylococcus aureus ATCC 29213 by agar dilution method; format: functional
Morganella morganii = assay: Antibacterial activity against Morganella morganii ATCC 25830 by agar dilution method; format: functional
Pseudomonas aeruginosa [12] = assay: Antibacterial activity against Pseudomonas aeruginosa PAO1 by agar dilution method; format: functional
[13] = tested on: Staphylococcus epidermidis; assay: Antibacterial activity against methicillin-sensitive Staphylococcus epidermidis 09-9 by agar dilution method; format: functional
Pseudomonas aeruginosa [14] = assay: Antibacterial activity against Pseudomonas aeruginosa 09-14 by agar dilution method; format: functional
Enterococcus faecium [15] = assay: Antibacterial activity against vancomycin-sensitive Enterococcus faecium 09-10 by agar dilution method; format: functional
Klebsiella pneumoniae [16] = assay: Antibacterial activity against extended-spectrum beta-lactamase-positive Klebsiella pneumoniae ATCC 700603 by agar dilution method; format: functional
Citrobacter freundii = assay: Antibacterial activity against Citrobacter freundii ATCC 43864 by agar dilution method; format: functional
Klebsiella pneumoniae [17] = assay: Antibacterial activity against extended-spectrum beta-lactamase-negative Klebsiella pneumoniae 7 by agar dilution method; format: functional
Escherichia coli [18] = assay: Antibacterial activity against extended-spectrum beta-lactamase-negative Escherichia coli 1515 by agar dilution method; format: functional
[19] = tested on: Staphylococcus epidermidis; assay: Antibacterial activity against methicillin-sensitive Staphylococcus epidermidis ATCC 12228 by agar dilution method; format: functional
Enterococcus faecium [20] = assay: Antibacterial activity against vancomycin-resistant Enterococcus faecium ATCC 700221 by agar dilution method; format: functional
Enterococcus faecalis [21] = assay: Antibacterial activity against vancomycin-sensitive Enterococcus faecalis 09-8 by agar dilution method; format: functional
[22] = tested on: Acinetobacter calcoaceticus; assay: Antibacterial activity against Acinetobacter calcoaceticus ATCC 19606 by agar dilution method; format: functional
Staphylococcus aureus [23] = assay: Antibacterial activity against methicillin-sensitive Staphylococcus aureus 15 by agar dilution method; format: functional
Enterobacter cloacae = assay: Antibacterial activity against Enterobacter cloacae 45301 by agar dilution method; format: functional
Proteus mirabilis = assay: Antibacterial activity against Proteus mirabilis 09-1 by agar dilution method; format: functional
Escherichia coli [24] = assay: Antibacterial activity against extended-spectrum beta-lactamase-negative Escherichia coli ATCC 25922 by agar dilution method; format: functional
Klebsiella pneumoniae [25] = assay: Antibacterial activity against extended-spectrum beta-lactamase-positive Klebsiella pneumoniae 09-25 by agar dilution method; format: functional
Klebsiella aerogenes = assay: Antibacterial activity against Enterobacter aerogenes 45102 by agar dilution method; format: functional
[26] = Cytotoxicity against HEK293T cells after 48 hrs by MTS assay; format: cell-based, HEK-293T; conditions: human
Escherichia coli [27] = assay: Antibacterial activity against extended-spectrum beta-lactamase-positive Escherichia coli 09-1 by agar dilution method; format: functional
Enterococcus faecalis [28] = assay: Antibacterial activity against vancomycin-sensitive Enterococcus faecalis ATCC 29212 by agar dilution method; format: functional
[29] = tested on: Staphylococcus epidermidis; assay: Antibacterial activity against methicillin-resistant Staphylococcus epidermidis 09-3 by agar dilution method; format: functional
Serratia marcescens = assay: Antibacterial activity against Serratia marcescens 41002 by agar dilution method; format: functional

SMILES	MIC (Providencia rettgeri) [µg/mL]	MIC (Klebsiella pneumoniae [3]) [µg/mL]	MIC (Pseudomonas aeruginosa [4]) [µg/mL]	MIC (Proteus vulgaris) [µg/mL]	MIC (Klebsiella pneumoniae [10]) [µg/mL]	MIC (Morganella morganii) [µg/mL]	MIC [13] [µg/mL]	MIC (Enterococcus faecium [15]) [µg/mL]	MIC (Citrobacter freundii) [µg/mL]	MIC [19] [µg/mL]	MIC (Enterococcus faecalis [21]) [µg/mL]	MIC [22] [µg/mL]	MIC (Enterobacter cloacae) [µg/mL]	MIC (Proteus mirabilis) [µg/mL]	MIC (Escherichia coli [24]) [µg/mL]	MIC (Klebsiella pneumoniae [25]) [µg/mL]	MIC (Klebsiella aerogenes) [µg/mL]	MIC (Escherichia coli [27]) [µg/mL]	MIC (Enterococcus faecalis [28]) [µg/mL]	MIC (Serratia marcescens) [µg/mL]	other results
N=C(c1ccc2cc(-c3ccc(Oc4ccc(-c5cc6ccc(C(=N)N7CCC(N8CCCC8)CC7)cc6[nH]5)cc4)cc3)[nH]c2c1)N1CCC(N2CCCC2)CC1	> 128	128 (≈ 169 µM)	> 128	> 128	128 (≈ 169 µM)	128 (≈ 169 µM)	8 (≈ 10.5 µM)	8 (≈ 10.5 µM)	> 128	3 to 8 (≈ 3.95 to 10.5 µM)	8 (≈ 10.5 µM)	> 128	64 (≈ 84.3 µM)	> 128	32 (≈ 42.2 µM)	128 (≈ 169 µM)	128 (≈ 169 µM)	64 (≈ 84.3 µM)	8 (≈ 10.5 µM)	> 128	MIC (Staphylococcus aureus [1]): 8 µg/mL (≈ 10.5 µM); MIC (Enterococcus faecalis [2]): 16 µg/mL (≈ 21.1 µM); MIC (Salmonella typhi): 32 µg/mL (≈ 42.2 µM); MIC (Staphylococcus aureus [5]): 8 µg/mL (≈ 10.5 µM); MIC (Enterococcus faecalis [6]): 8 µg/mL (≈ 10.5 µM); MIC (Enterococcus faecium [7]): 8 µg/mL (≈ 10.5 µM); MIC (Staphylococcus aureus [8]): 8 µg/mL (≈ 10.5 µM); MIC (Escherichia coli [9]): 32 µg/mL (≈ 42.2 µM); MIC (Staphylococcus aureus [11]): 8 µg/mL (≈ 10.5 µM); MIC (Pseudomonas aeruginosa [12]): > 128 µg/mL; MIC (Pseudomonas aeruginosa [14]): > 128 µg/mL; MIC (Klebsiella pneumoniae [16]): > 128 µg/mL; MIC (Klebsiella pneumoniae [17]): 128 µg/mL (≈ 169 µM); MIC (Escherichia coli [18]): 64 µg/mL (≈ 84.3 µM); MIC (Enterococcus faecium [20]): 8 µg/mL (≈ 10.5 µM); MIC (Staphylococcus aureus [23]): 8 µg/mL (≈ 10.5 µM); CC50 at 48 h [26]: 1.1 µg/mL (≈ 1.45 µM); MIC [29]: 8 µg/mL (≈ 10.5 µM)
c1cc(-c2cc3ccc(C4=NCCCN4)cc3[nH]2)ccc1Oc1ccc(-c2cc3ccc(C4=NCCCN4)cc3[nH]2)cc1	128 (≈ 227 µM)	128 (≈ 227 µM)	> 128	128 (≈ 227 µM)	128 (≈ 227 µM)	32 (≈ 56.7 µM)	1 (≈ 1.77 µM)	16 (≈ 28.3 µM)	128 (≈ 227 µM)	0.25 (≈ 0.443 µM)	2 (≈ 3.54 µM)	> 128	64 (≈ 113 µM)	> 128	64 (≈ 113 µM)	≥ 128	128 (≈ 227 µM)	64 (≈ 113 µM)	4 (≈ 7.08 µM)	128 (≈ 227 µM)	MIC (Escherichia coli [9]): 128 µg/mL (≈ 227 µM); MIC (Pseudomonas aeruginosa [12]): > 128 µg/mL; MIC (Pseudomonas aeruginosa [14]): > 128 µg/mL; MIC (Klebsiella pneumoniae [16]): > 128 µg/mL; MIC (Klebsiella pneumoniae [17]): ≥ 128 µg/mL; MIC (Escherichia coli [18]): 64 µg/mL (≈ 113 µM); CC50 at 48 h [26]: 43.1 µg/mL (≈ 76.3 µM)
CCC(C)NC(=N)c1ccc2cc(-c3ccc(Oc4ccc(-c5cc6ccc(C(=N)NC(C)CC)cc6[nH]5)cc4)cc3)[nH]c2c1 (centres undefined)	64 (≈ 107 µM)	16 (≈ 26.8 µM)	32 (≈ 53.6 µM)	32 (≈ 53.6 µM)	32 (≈ 53.6 µM)	16 (≈ 26.8 µM)	2 (≈ 3.35 µM)	8 (≈ 13.4 µM)	32 (≈ 53.6 µM)	0.5 (≈ 0.838 µM)	2 (≈ 3.35 µM)	64 (≈ 107 µM)	32 (≈ 53.6 µM)	64 (≈ 107 µM)	16 (≈ 26.8 µM)	32 (≈ 53.6 µM)	32 (≈ 53.6 µM)	32 (≈ 53.6 µM)	2 (≈ 3.35 µM)	64 (≈ 107 µM)	MIC (Staphylococcus aureus [1]): 2 µg/mL (≈ 3.35 µM); MIC (Enterococcus faecalis [2]): 8 µg/mL (≈ 13.4 µM); MIC (Salmonella typhi): 16 µg/mL (≈ 26.8 µM); MIC (Staphylococcus aureus [5]): 1 µg/mL (≈ 1.68 µM); MIC (Enterococcus faecalis [6]): 2 µg/mL (≈ 3.35 µM); MIC (Enterococcus faecium [7]): 2 µg/mL (≈ 3.35 µM); MIC (Staphylococcus aureus [8]): 2 µg/mL (≈ 3.35 µM); MIC (Escherichia coli [9]): 32 µg/mL (≈ 53.6 µM); MIC (Staphylococcus aureus [11]): 2 µg/mL (≈ 3.35 µM); MIC (Pseudomonas aeruginosa [12]): 64 µg/mL (≈ 107 µM); MIC (Pseudomonas aeruginosa [14]): 64 µg/mL (≈ 107 µM); MIC (Klebsiella pneumoniae [16]): 64 µg/mL (≈ 107 µM); MIC (Klebsiella pneumoniae [17]): 64 µg/mL (≈ 107 µM); MIC (Escherichia coli [18]): 16 µg/mL (≈ 26.8 µM); MIC (Enterococcus faecium [20]): 1 µg/mL (≈ 1.68 µM); MIC (Staphylococcus aureus [23]): 2 µg/mL (≈ 3.35 µM); CC50 at 48 h [26]: 40.4 µg/mL (≈ 67.7 µM); MIC [29]: 1 µg/mL (≈ 1.68 µM)
C[C@H]1COc2c(N3CCN(C)CC3)c(F)cc3c(=O)c(C(=O)O)cn1c23.C[C@H]1COc2c(N3CCN(C)CC3)c(F)cc3c(=O)c(C(=O)O)cn1c23.O [LEVOFLOXACIN]	≤ 0.03	≤ 0.03		≤ 0.03	> 128	≤ 0.03	8	64	≤ 0.03	0.25	1	0.25	0.06	2	0.03 to 0.06	4	0.06	16	0.5	0.25	MIC (Staphylococcus aureus [1]): 0.125 µg/mL; MIC (Enterococcus faecalis [2]): 128 µg/mL; MIC (Salmonella typhi): ≤ 0.03 µg/mL; MIC (Staphylococcus aureus [5]): 32 µg/mL; MIC (Enterococcus faecalis [6]): 0.5 µg/mL; MIC (Enterococcus faecium [7]): 64 µg/mL; MIC (Staphylococcus aureus [8]): 0.25 µg/mL; MIC (Staphylococcus aureus [11]): 0.125 µg/mL; MIC (Enterococcus faecium [20]): 64 µg/mL; MIC (Staphylococcus aureus [23]): 0.125 µg/mL; MIC [29]: 8 µg/mL
c1cc(-c2cc3ccc(C4=NCCN4)cc3[nH]2)ccc1Oc1ccc(-c2cc3ccc(C4=NCCN4)cc3[nH]2)cc1	> 128	> 128	> 128	> 128	> 128	> 128	2 (≈ 3.73 µM)	8 (≈ 14.9 µM)	> 128			> 128	> 128	> 128	> 128	> 128	> 128	> 128		> 128	MIC (Staphylococcus aureus [8]): 16 µg/mL (≈ 29.8 µM); MIC (Escherichia coli [9]): > 128 µg/mL; MIC (Staphylococcus aureus [11]): 16 µg/mL (≈ 29.8 µM); MIC (Pseudomonas aeruginosa [12]): > 128 µg/mL; MIC (Pseudomonas aeruginosa [14]): > 128 µg/mL; MIC (Klebsiella pneumoniae [16]): > 128 µg/mL; MIC (Klebsiella pneumoniae [17]): > 128 µg/mL; MIC (Escherichia coli [18]): > 128 µg/mL; MIC (Staphylococcus aureus [23]): 8 µg/mL (≈ 14.9 µM); CC50 at 48 h [26]: 1.7 µg/mL (≈ 3.17 µM)
CN[C@H](CC(C)C)C(=O)N[C@H]1C(=O)N[C@@H](CC(N)=O)C(=O)N[C@H]2C(=O)N[C@H]3C(=O)N[C@H](C(=O)N[C@H](C(=O)O)c4cc(O)cc(O)c4-c4cc3ccc4O)[C@H](O)c3ccc(c(Cl)c3)Oc3cc2cc(c3O[C@@H]2O[C@H](CO)[C@@H](O)[C@H](O)[C@H]2O[C@H]2C[C@](C)(N)[C@H](O)[C@H](C)O2)Oc2ccc(cc2Cl)[C@H]1O [VANCOMYCIN]							0.5 (≈ 0.345 µM)			0.5 (≈ 0.345 µM)	1 (≈ 0.69 µM)								1 (≈ 0.69 µM)		
